One series relates to PDGFRA. The arrangement: method as in PMID 26234515, PMID 22780961, PMID 24135855. Conditions: cited from earlier work.
Series [1] concerns MEK1/2 and ERK1/2 phosphorylation. The experiment in a line: immunoblot analysis of tumor xenograft extracts. It counts as in vivo, mice. Conditions: tumors collected at termination; combination = HDT+MBZ. How it is done: All animal experiments were performed in accordance with the guidelines and approval of Georgetown University Animal Care and Use Committee. Athymic 6-week old male mice (Taconic) were acclimated to the Division of Comparative Medicine at Georgetown University a week prior to xenografting. 3×10^6 melanoma cells were resuspended in Matrigel and injected subcutaneously into the hind flanks of athymic mice using a 22-gauge needle. […] Drugs were administered by oral gavage. Each testing group contained three to five mice in each of four experiments. Each tumor from each treatment group was measured on indicated days, and all tumor sizes were then normalized to their size at day 0 of drug treatment. All data from all four experiments was then combined for statistical analysis, to compare every mouse from each treatment group. […] The results were expressed as the mean (±SD) of tumor volume in each group. After five weeks, mice were euthanized; tumors extracts were derived for immunoblot analysis. SDS-PAGE and transfer of separated proteins to nitrocellulose membranes were performed according to standard procedures. […] Immune complexes were detected by incubation with appropriate horseradish peroxidase-conjugated antibodies to mouse or rabbit IgG (1:3000) and enhanced chemiluminescence (Pierce, Rockford, IL).
In general terms: Immunoblotting shows a protein as a band on a membrane.

On the set-up of series [2]: method as in PMID 7094986. The note with it: chronic oral MBZ 10 mg/kg/day, cited from earlier work.
Series [3] concerns phosphorylation of ERK1/2 (T202/Y204). Description: immunoblot analysis of BAK cells. It counts as cell-based, human. The note with it: 100 nM, combination undetectable by 30 min. As for the experimental part:
(§1) SDS-PAGE and transfer of separated proteins to nitrocellulose membranes were performed according to standard procedures. Membranes were stained with Ponceau S (0.1%) to verify equal loading and transfer of proteins, and then incubated with antibodies specific for pERK1/2 T202/Y204, pMEK1/2 S217/221, pBAD S-112, total BAD, total ERK1/2, total MEK1/2, BCL2 (Santa Cruz Biotech), BCLXL (Santa Cruz Biotech), cleaved PARP (Cell Signaling), or GAPDH (Abcam; loading control). Immune complexes were detected by incubation with appropriate horseradish peroxidase-conjugated antibodies to mouse or rabbit IgG (1:3000) and enhanced chemiluminescence (Pierce, Rockford, IL).

The subject of the next series is pMEK1/2 S217/221. The experiment in a line: immunoblot analysis of BAK cells. It counts as cell-based, human. Conditions: 100 nM, combination within 30 min. As for the experimental part:
as §1

For a further series, the target named is MEK1 (Homo sapiens, UniProt Q02750). The experiment in a line: in vitro kinase assay, percent control. It counts as binding. Conditions: Kinase Target MEK1.
Sequence of MEK1 (Q02750 whole entry): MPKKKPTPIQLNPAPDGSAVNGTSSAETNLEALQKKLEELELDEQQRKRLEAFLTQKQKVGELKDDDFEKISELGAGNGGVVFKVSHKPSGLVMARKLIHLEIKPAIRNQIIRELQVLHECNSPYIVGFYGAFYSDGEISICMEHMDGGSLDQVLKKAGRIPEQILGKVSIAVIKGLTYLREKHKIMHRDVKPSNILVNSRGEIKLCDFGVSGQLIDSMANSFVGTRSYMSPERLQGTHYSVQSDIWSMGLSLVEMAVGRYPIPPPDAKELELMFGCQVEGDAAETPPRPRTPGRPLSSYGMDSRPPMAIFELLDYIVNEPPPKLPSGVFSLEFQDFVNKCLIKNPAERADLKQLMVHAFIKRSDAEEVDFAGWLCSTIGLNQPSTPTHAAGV
For another series, the target named is BRAF (V600E) (Homo sapiens, UniProt P15056, V600E). The experiment in a line: in vitro kinase assay, percent control and binding affinity. The note with it: Kinase Target BRAF (V600E).
Sequence of BRAF (V600E) (P15056 whole entry V600E): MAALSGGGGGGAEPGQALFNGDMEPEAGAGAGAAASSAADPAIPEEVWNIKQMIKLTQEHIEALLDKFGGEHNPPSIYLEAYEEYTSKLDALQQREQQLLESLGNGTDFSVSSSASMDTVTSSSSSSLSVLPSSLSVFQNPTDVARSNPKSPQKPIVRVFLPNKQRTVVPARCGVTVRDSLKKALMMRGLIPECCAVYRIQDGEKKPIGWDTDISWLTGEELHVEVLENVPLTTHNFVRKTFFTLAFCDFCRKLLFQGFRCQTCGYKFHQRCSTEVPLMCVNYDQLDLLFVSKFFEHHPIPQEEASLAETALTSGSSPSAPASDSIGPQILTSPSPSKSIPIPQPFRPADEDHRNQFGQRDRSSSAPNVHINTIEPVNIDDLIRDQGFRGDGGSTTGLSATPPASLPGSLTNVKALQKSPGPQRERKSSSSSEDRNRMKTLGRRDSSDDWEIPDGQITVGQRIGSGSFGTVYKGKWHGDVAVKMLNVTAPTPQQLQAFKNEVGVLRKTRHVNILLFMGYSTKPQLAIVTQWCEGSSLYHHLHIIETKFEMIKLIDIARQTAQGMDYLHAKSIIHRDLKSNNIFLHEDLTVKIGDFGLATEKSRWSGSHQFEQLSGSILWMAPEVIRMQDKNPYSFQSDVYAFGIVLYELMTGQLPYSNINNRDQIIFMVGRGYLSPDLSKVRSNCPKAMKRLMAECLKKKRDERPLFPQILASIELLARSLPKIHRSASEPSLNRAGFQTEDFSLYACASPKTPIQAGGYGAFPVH
The target of a further series is C-RAF (Homo sapiens, UniProt P04049). Description: in vitro kinase assay, percent control. It counts as binding. Conditions: Kinase Target C-RAF.
Sequence of C-RAF (P04049 whole entry): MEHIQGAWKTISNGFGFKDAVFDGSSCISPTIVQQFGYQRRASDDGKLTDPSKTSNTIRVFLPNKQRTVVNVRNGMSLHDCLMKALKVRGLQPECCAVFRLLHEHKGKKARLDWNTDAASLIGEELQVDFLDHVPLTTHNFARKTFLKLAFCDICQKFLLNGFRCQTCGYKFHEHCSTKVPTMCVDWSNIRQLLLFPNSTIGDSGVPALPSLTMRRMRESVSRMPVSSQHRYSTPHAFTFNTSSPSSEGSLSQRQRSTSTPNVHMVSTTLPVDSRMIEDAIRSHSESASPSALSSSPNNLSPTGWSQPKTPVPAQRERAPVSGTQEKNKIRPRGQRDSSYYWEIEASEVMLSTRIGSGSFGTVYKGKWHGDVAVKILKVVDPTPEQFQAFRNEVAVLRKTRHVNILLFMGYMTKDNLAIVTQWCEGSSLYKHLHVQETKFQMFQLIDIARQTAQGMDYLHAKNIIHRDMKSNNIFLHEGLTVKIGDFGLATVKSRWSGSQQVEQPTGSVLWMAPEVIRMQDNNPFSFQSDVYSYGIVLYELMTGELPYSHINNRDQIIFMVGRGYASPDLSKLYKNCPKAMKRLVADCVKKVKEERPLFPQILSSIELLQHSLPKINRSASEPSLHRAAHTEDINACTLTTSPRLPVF
The next series has as its target MEK2 (Homo sapiens, UniProt P36507). The experiment in a line: in vitro kinase assay, percent control. It counts as binding. Conditions: Kinase Target MEK2.
Series [4] relates to BAK melanoma cells xenografted into athymic mice. Description: mouse xenografting, tumor growth. It counts as in vivo. Conditions: gavage; for tumor growth (in words): trametinib 0.1 or 3 mg/kg/qd, alone or combined. As for the experimental part:
All animal experiments were performed in accordance with the guidelines and approval of Georgetown University Animal Care and Use Committee. Athymic 6-week old male mice (Taconic) were acclimated to the Division of Comparative Medicine at Georgetown University a week prior to xenografting. 3×10^6 melanoma cells were resuspended in Matrigel and injected subcutaneously into the hind flanks of athymic mice using a 22-gauge needle. […] Drugs were administered by oral gavage. Each testing group contained three to five mice in each of four experiments. Each tumor from each treatment group was measured on indicated days, and all tumor sizes were then normalized to their size at day 0 of drug treatment. All data from all four experiments was then combined for statistical analysis, to compare every mouse from each treatment group. […] The results were expressed as the mean (±SD) of tumor volume in each group. After five weeks, mice were euthanized; tumors extracts were derived for immunoblot analysis. […] This yields a similar constant to that calculated by Mosteller for humans: BSA (m^2) = [[…] (kg)]*60 [36]. […] For high dose trametinib, this is equivalent to 14.4 mg/person/day. […] By comparison, patient doses range from 100 mg one time (pinworms) to 200 mg/kg per day for 12 weeks ([…] disease in children) including doses up to 6 g per day. […] The results shown are based on a single experiment in triplicate, and repeated in three independent experiments with essentially the same results. […] For tumor sizes, the rate-based T/C (tumor/control) test of significance was used as described, using the author's template. The results are representative of 3 independent experiments with reproducible results. For determining synergism, the combination index (τ) was calculated from single dose-response curves and combination experiments as τ = xA/XA+xB/XB, in which, for a given cytotoxic effect, xA and xB are the concentrations of drugs A and B in the combination, and XA and XB are the concentrations of drugs A and B that achieve the same cytotoxic effect when given alone.

The next series has as its system PDGFRB. The arrangement: method as in PMID 26234515, PMID 22780961, PMID 24135855. Conditions: cited from earlier work.
The next series addresses roundworm tubulin. The arrangement: method as in PMID 7388055. Conditions: nematode and cestode parasite tubulin; read-out: apparent binding affinity for tubulin; cited from earlier work.
The test system of series [5] is BAK, BUL and STU melanoma cells. Description: XTT cell viability assay, statements for all three lines. It counts as cell-based, human. The note with it: 72 h; for concentration at which significant growth inhibition was observed: 2-way ANOVA; for cytotoxic activity as single agent (in words): all three cell lines. How it is done: MBZ, dabrafenib, and trametinib were purchased from Sigma-Aldrich and ActiveBiochem, respectively. 5 × 10^3 viable cells per well were plated in 96-well dishes and allowed to recover for 12 h prior to drug treatment. Cells in triplicate wells were treated for up to 72 h (based on initial time course experiments showing maximal effects at that time point) with different concentrations of trametinib, dabrafenib, or MBZ alone, or a combination of MBZ and trametinib. Negative controls were exposed to vehicle DMSO in the same volumes. Cell viability was assessed by an XTT assay, according to a manufacturer's specifications (Biotium Inc). Reduced XTT was measured by absorbance at 490 nm on a PerkinElmer Victor3 plate reader. Cells exposed to detergent served as a positive control.
The results shown are based on a single experiment in triplicate, and repeated in three independent experiments with essentially the same results. Data from triplicates of treatment groups were compared using Student's t-test or 2-way ANOVA (multiple comparisons) for significance, and p values of < 0.05 were considered statistically significant. For tumor sizes, the rate-based T/C (tumor/control) test of significance was used as described, using the author's template. The results are representative of 3 independent experiments with reproducible results. For determining synergism, the combination index (τ) was calculated from single dose-response curves and combination experiments as τ = xA/XA+xB/XB, in which, for a given cytotoxic effect, xA and xB are the concentrations of drugs A and B in the combination, and XA and XB are the concentrations of drugs A and B that achieve the same cytotoxic effect when given alone. A τ value of 1 indicates additivity, τ less than 1 indicates synergy, and τ greater than 1 indicates antagonism.
For orientation: Tetrazolium dyes change colour on reduction, which living cells bring about.

A further series addresses BRAF (Homo sapiens, UniProt P15056). Description: in vitro kinase assay, percent control and binding affinity.
Another series deals with human tubulin. The arrangement: method as in PMID 7388055. The note with it: much lower than for parasite tubulin; cited from earlier work.
A further series addresses VEGFR2 (Homo sapiens, UniProt P35968). Description: in vitro kinase assay, percent control and binding affinity. The note with it: Kinase Target VEGFR2.
The subject of a further series is VEGFR-2. The arrangement: method as in PMID 26234515, PMID 22780961, PMID 24135855. Conditions: cited from earlier work.
Series [6] has as its system BAK and BUL melanoma cells. The experiment in a line: apoptosis (fluorometric caspase-3 activity, sub-G1) and cell cycle assays. It counts as cell-based, human. Conditions: 100 nM, all time points. From the text:
Cells were collected, fixed in ethanol, stained with propidium iodide (PI) to determine DNA content, and analyzed by flow cytometry (FACStar PLus; BD BioSciences, San Jose, CA).
Cytosolic extracts, derived from pooled floating and attached cells, were subjected to fluorometric caspase-3 activity assays using fluorescent tetrapeptide substrate specific for caspases-3 (Ac-DEVD-aminomethylcoumarin (AMC, Enzo Life Sciences, Ann Arbor, MI) as previously described. Free AMC, generated as a result of cleavage of the aspartate-AMC bond, was monitored over 30 min with a Wallac Victor^3 fluorometer (Perkin-Elmer, Waltham, MA) at excitation and emission wavelengths of 360 and 460 nm, respectively. The emission from each sample was plotted against time, and linear regression analysis of the initial velocity (slope) for each curve yielded the activity.

Broadly, the remaining activity is what remains of the control signal, in per cent. Read a low remaining activity as a large loss of activity.

Sequence of BRAF (P15056 whole entry): as the sequence (P15056 whole entry V600E) above, with E600V counted along it
Sequence of MEK2 (P36507 whole entry): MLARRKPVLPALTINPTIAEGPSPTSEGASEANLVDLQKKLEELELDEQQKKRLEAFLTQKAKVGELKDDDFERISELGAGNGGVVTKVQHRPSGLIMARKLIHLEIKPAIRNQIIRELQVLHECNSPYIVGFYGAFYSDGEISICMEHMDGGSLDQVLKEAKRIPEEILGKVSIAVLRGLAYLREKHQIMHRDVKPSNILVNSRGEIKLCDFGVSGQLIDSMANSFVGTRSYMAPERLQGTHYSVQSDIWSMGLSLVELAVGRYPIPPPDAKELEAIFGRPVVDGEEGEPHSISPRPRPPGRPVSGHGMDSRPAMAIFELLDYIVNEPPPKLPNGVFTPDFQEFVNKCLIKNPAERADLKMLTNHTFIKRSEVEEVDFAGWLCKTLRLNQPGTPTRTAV
Sequence of VEGFR2 (P35968 20-1356): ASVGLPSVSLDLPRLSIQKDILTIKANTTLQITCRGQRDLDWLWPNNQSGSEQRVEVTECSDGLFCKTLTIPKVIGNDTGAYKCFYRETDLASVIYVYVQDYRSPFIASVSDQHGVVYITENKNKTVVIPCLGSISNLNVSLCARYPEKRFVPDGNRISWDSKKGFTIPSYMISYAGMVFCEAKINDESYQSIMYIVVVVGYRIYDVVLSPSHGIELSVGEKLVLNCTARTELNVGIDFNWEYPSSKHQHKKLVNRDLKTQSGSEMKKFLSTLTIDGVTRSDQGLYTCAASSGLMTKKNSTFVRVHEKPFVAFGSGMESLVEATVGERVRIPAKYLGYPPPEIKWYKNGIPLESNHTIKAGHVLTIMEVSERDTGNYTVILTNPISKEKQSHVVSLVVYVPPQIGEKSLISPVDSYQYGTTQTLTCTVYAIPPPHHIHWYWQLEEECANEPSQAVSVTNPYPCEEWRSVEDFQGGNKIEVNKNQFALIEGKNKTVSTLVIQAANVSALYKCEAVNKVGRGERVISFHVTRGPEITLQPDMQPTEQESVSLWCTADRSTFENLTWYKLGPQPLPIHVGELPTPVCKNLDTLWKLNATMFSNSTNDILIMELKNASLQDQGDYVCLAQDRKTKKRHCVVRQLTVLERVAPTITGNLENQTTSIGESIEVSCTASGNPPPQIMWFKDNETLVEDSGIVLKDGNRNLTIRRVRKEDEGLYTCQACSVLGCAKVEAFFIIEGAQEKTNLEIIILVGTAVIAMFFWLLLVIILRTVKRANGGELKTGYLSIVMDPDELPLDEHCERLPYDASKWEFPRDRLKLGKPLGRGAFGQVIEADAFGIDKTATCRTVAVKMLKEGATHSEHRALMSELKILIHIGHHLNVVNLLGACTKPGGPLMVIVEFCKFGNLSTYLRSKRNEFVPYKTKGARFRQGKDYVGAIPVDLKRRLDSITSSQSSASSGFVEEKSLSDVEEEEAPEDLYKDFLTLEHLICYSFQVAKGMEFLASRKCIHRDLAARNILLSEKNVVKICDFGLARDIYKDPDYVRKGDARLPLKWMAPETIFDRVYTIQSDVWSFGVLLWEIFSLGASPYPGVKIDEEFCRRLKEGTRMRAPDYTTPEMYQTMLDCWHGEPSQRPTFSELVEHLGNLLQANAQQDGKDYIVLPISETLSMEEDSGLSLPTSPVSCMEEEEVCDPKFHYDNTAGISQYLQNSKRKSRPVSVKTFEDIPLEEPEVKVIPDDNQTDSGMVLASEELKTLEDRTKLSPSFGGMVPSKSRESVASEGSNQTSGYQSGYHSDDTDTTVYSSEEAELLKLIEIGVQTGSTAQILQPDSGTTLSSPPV

Regarding `COC(=O)Nc1nc2ccc(C(=O)c3ccccc3)cc2[nH]1` [MBZ, methyl N-[6-(benzoyl)-1H-benzimidazol-2-yl] carbamate], the “concentration at which MBZ inhibits PDGFRA” value in the series on PDGFRA is given as 820 nM. The “MEK1/2 and ERK1/2 phosphorylation in tumors (in words)” value in series [1] was “ability to suppress”. Besides, the “peak plasma level, variability between patients” value in [2] was 0.34 to 1.69 µM. The “mean peak plasma level” value in [2] (patients) is 470 nM. The “activating phosphorylation of ERK1/2 (T202/Y204) (in words)” value in [3] was “diminished”. In addition, the “pMEK1/2 S217/221 activating phosphorylation (in words)” value in the series with pMEK1/2 S217/221 is given as “not inhibited”. Also, the remaining activity at 10 µM at MEK1 amounted to 16%; at BRAF (V600E) (10 μM), 3.2%; at C-RAF, 23%; at MEK2, 12%; on BRAF (10 μM, Kinase Target BRAF), 7.8%; on VEGFR2, 20%. Besides, the figures for the Kd on BRAF (V600E), at roundworm tubulin and at BRAF (Kinase Target BRAF (BRAF^WT)) were 210 nM, 19 nM and 230 nM, respectively. Moreover, in [4] (MBZ vs Vehicle, MBZ 40 mg/kg/qad), the “Rate-based T/C” value was determined as 1.04. For the same compound, the “tumor growth (in words)” value in series [4] (MBZ 40 mg/kg/qad) is “did not work as a monotherapy”. In the series with PDGFRB, the “concentration at which MBZ inhibits PDGFRB” value is listed as 660 nM. Further, the “concentration at which significant growth inhibition was observed” value in [5] is recorded as not below 10 nM. In addition, in series [5], the “cytotoxic activity as single agent (in words)” value is listed as “weak cytotoxic activity”. Also, the “affinity for human tubulin” value at human tubulin was “µM range”. In the series with VEGFR-2, the “concentration at which MBZ inhibits VEGFR-2” value was 3.6 µM.

As for `CC(C)(C)c1nc(-c2cccc(NS(=O)(=O)c3c(F)cccc3F)c2F)c(-c2ccnc(N)n2)s1` [dabrafenib], in series [5], the “concentration at which significant growth inhibition was observed” value was not below 1000 nM and the “cytotoxic activity as single agent (in words)” value was “resistance to dabrafenib except at the highest doses tested”.

For the compound `CC(=O)Nc1cccc(-n2c(=O)n(C3CC3)c(=O)c3c(Nc4ccc(I)cc4F)n(C)c(=O)c(C)c32)c1` [trametinib], in series [1], the “MEK1/2 and ERK1/2 phosphorylation in tumors (in words)” value was “ability to suppress”. Besides, the “activating phosphorylation of ERK1/2 (T202/Y204) (in words)” value in series [3] was “diminished”. Besides, in the series with pMEK1/2 S217/221, the “pMEK1/2 S217/221 activating phosphorylation (in words)” value is “not inhibited”. For the same compound, the “percentage of cells in S phase (in words)” value in series [6] is reported as “decreased”. Moreover, the “Rate-based T/C” value in series [4] (HDT vs Vehicle, high dose trametinib 3 mg/kg/qd) stood at 0.73; in [4] (LDT vs Vehicle, low dose trametinib 0.1 mg/kg/qd) it was 0.93. Also, the “tumor growth (in words)” value in [4] (MBZ 40 mg/kg/qad) was “did not show any significant tumor-suppressive effects”. In addition, in series [5], the “concentration at which significant growth inhibition was observed” value is reported as not below 1 nM.

Source of the values: paper PMC5355037, “The repurposed anthelmintic mebendazole in combination with trametinib suppresses refractory NRAS^Q61K melanoma” (Oncotarget, 2017).
